Experimental data taken from article PMC6943527, “Are the Hydantoin-1,3,5-triazine 5-HT6R Ligands a Hope to a Find New Procognitive and Anti-Obesity Drug? Considerations Based on Primary In Vivo Assays and ADME-Tox Profile In Vitro” (Molecules, 2019).
Each block holds one compound with its values, some of them ahead of it.

Experiments:
[1] = Parallel artificial membrane permeability assay (PAMPA)
[2] = Hepatotoxicity assay, HepG2 cell viability; type: cell-based; conditions: human, HepG2 hepatoma cells, 100 µM, read-out: HepG2 cell viability, % of the control
Method: The cell-based assays were used to investigate safety of the 5-HT6R ligands. […] During the same study, no effect for KMP-10 was observed. Additional safety tests with the hepatoma HepG2 cell line were performed here to estimate the compounds’ hepatotoxicity. A slight antiproliferative effect was observed only for DJ-18 at 100 µM, where the cell viability was decreased to up to ~83% of the control (Figure 9a).
Hepatotoxicity was estimated using the hepatoma HepG2 (ATCC® HB-8065^TM) cell line according to previously described protocols. The CellTiter 96® AQueous Non-Radioactive Cell Proliferation Assay was obtained from Promega (Madison, WI, USA). The compounds were investigated in quadruplicate at four concentrations (0.1–100 µM) for 72h. The antiproliferative drug DX was used as a positive control at a dose of 1 µM.

[3] = Metabolic stability and metabolic pathways in human liver microsomes
Method: The pharmacokinetic parameters of compounds were estimated by using human liver microsomes (HLMs) (Sigma-Aldrich, St. Louis, MO, USA). The t1/2 values and intrinsic clearances (CLint) were calculated with IS by using the protocols and formulas proposed by Obach [38]. […] VL was used as the reference unstable drug.

5-HT7 = target: 5-HT7; parameters: method as in PMID 30282913; conditions: radioligand binding, average of at least two independent experiments; read-out: Ki 5-HT7 [3H]-5-CT; cited from earlier work
5-HT6 = target: 5-HT6; parameters: method as in PMID 30282913; conditions: radioligand binding, average of at least two independent experiments; read-out: Ki 5-HT6 [3H]-LSD; cited from earlier work
5-HT1A = target: 5-HT1A; parameters: method as in PMID 30282913; conditions: radioligand binding, average of at least two independent experiments; read-out: Ki 5-HT1A [3H]-8-OH-DPAT; cited from earlier work
[4] = test system: human embryonic kidney (HEK)-293 cells; parameters: method as in PMID 30282913; conditions: highest concentration 100 µM; cited from earlier work
D2 = target: D2; parameters: method as in PMID 30282913; conditions: radioligand binding, average of at least two independent experiments; read-out: Ki D2 [3H]-Raclopride; cited from earlier work
[5] = parameters: method as in PMID 29297106; conditions: earlier studies; cited from earlier work
CYP3A4 = target: T1, CYP3A4 (Homo sapiens, UniProt P08684); parameters: method as in PMID 28212021; conditions: cited from earlier work
T1 construct: purchased Promega (Madison, WI, USA)

[6] = cited from earlier work
CYP2D6 = target: T2, CYP2D6 (Homo sapiens, UniProt P10635); parameters: method as in PMID 28212021; conditions: cited from earlier work
T2 construct: purchased Promega (Madison, WI, USA)
T2 sequence (P10635 whole entry): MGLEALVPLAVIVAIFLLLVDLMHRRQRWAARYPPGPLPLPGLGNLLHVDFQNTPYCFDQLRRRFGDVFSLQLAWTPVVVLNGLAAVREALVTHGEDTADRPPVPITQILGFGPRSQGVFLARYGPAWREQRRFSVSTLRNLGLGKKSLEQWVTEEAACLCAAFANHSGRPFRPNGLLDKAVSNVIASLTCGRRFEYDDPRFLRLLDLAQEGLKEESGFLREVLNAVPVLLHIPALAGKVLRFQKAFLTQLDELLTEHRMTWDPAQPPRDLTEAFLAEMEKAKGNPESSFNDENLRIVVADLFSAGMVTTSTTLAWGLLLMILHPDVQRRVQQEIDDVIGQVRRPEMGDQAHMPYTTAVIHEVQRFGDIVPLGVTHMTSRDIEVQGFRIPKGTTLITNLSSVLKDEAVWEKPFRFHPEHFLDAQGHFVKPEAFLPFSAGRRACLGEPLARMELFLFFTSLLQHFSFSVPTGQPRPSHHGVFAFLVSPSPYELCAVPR

T1 sequence (P08684 whole entry): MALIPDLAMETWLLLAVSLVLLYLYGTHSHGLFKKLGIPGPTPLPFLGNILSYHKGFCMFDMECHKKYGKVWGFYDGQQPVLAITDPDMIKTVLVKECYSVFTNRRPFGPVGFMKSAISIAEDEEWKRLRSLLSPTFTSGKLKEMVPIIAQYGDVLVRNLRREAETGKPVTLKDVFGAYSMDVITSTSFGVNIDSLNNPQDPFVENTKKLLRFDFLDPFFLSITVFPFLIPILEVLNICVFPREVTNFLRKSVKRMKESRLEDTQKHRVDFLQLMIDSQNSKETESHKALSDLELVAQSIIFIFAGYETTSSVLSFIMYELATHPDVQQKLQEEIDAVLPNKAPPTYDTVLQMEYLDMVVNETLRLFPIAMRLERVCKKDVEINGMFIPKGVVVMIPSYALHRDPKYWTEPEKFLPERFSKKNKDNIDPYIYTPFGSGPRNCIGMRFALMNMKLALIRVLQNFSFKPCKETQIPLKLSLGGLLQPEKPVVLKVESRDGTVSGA

Papp at 5 h, 200 µM ([1]; PAMPA, pH 7.4): 24.9 ± 0.45 ×10⁻⁶ cm/s
PAMPA ability to penetrate the artificial membrane, fold stronger than caffeine ([1]; vs high-permeable reference caffeine): ~ 1.65
Metabolic Pathway, metabolite M1 ([3]; HLMs, 120 min incubation): demethylation
Metabolic Pathway, metabolite M2 ([3]; HLMs, 120 min incubation): hydroxylation
Metabolic Pathway, metabolite M3 ([3]; HLMs, 120 min incubation): demethylation and hydroxylation
Metabolic Pathway, metabolite M4 ([3]; HLMs, 120 min incubation): hydroxylation
Intrinsic Clearance CLint ([3]; HLMs, reactions terminated at 5, 15, 30 and 45 min): 4.32 mL/min/kg
t1/2, fold longer than verapamil ([3]; HLMs, vs unstable reference verapamil): ~ 6 fold
half-life ([3]; human, liver microsomes, Half-Life t1/2, HLMs, reactions terminated at 5, 15, 30 and 45 min): 3.12 h
SMILES: CN1CCN(c2nc(N)nc(CN3C(=O)N(Cc4ccc(Cl)cc4)C(C)(C)C3=O)n2)CC1 [DJ-18]
viability at 72 h, 100 µM [2]: ~83%
Ki (5-HT7): 3.71 µM
Ki (5-HT6): 0.127 µM
Ki (5-HT1A): 23.3 µM
HEK-293 cells viability [4]: statistically significant slight decrease
Ki (D2): 4.1 µM

SMILES: Fc1ccc2c(CCNCc3cccc(OCC(F)(F)C(F)F)c3)c[nH]c2c1 [Idalopirdine]
Amount of visceral fat [5]: significantly reduced
Elevated glucose levels [5]: compensated for elevated glucose levels

PAMPA Pe ± SD ([1]; 200 µM in PBS pH 7.4, 5 h, room temperature, triplicate): 0.56 ± 0.13 10^−6 cm/s
SMILES: CCn1cc(C(=O)O)c(=O)c2cc(F)c(N3CCNCC3)cc21 [Norfloxacin, norfloxacin, reference compound]

SMILES: COc1ccc2c(c1)c(CN1CCN(C)CC1)cn2S(=O)(=O)c1ccccc1Br.CS(=O)(=O)O.CS(=O)(=O)O.O [SUVN-502, 1-[(2-Bromophenyl)sulfonyl]-5-methoxy-3-[(4-methyl-1-piperazinyl)methyl]-1H-indole Dimesylate Monohydrate]
CYP3A4 inhibition (CYP3A4): rather strong inhibitor
BBB-penetration ([6]; after oral administration): good BBB (blood brain barrier)-penetration
t1/2 in vivo ([6]; pharmacokinetics in vivo): 0.95 h
CYP2D6 inhibition (CYP2D6): weaker inhibitor
